Measured values as given in article PMC10548421, “Anticancer Potential of Diruthenium Complexes with Bridging Hydrocarbyl Ligands from Bioactive Alkynols” (Inorganic Chemistry, 2023).

Experiments:
[1] = system: A2780R cisplatin-resistant human ovarian carcinoma cell line; experiment: MTT in vitro cytotoxicity, A2780R; type: cell-based; conditions: incubation 24 h, mean ± SD
Description: (§1) The cytotoxicity assessment was conducted on various human cancer cell lines, including A2780 ovarian carcinoma, A2780R cisplatin-resistant ovarian carcinoma, MCF-7 breast, HOS osteosarcoma, A549 epithelial lung, PANC-1 pancreatic, Caco-2 colorectal, PC-3 prostate adenocarcinoma, and HeLa cervical cell lines. Additionally, the assessment extended to a normal human fetal fibroblast cell line (MRC-5). Cells were obtained from ATCC collection and cultivated according to the producer’s instructions. Stock solutions of the compounds were prepared in DMF immediately before application, and diluted with H2O to achieve the final concentration of 0.1% v/v DMF.[99] The culture media were enriched with 10% fetal calf serum. Subsequently, the cells were exposed to the tested compounds, vehicle (0.1% v/v DMF) and Triton X-100 (1% v/v), during incubation. The conventional MTT assay was carried out following different incubation periods (Tables 5-6). The absorbance was measured at 570 nm by using a spectrophotometer (Infinite M200, Schoeller Instruments, Prague, Czech Republic). The obtained data are presented as the percentage of cell viability with 100% representing negative control treatment (0.1% v/v DMF) and 0% representing the positive control (Triton X-100). The half-maximal inhibitory concentrations (IC50) were determined from dose–response curves using GraphPad Prism 6 software (GraphPad Software, San Diego, USA).

[2] = system: A549 human lung adenocarcinoma cell line; experiment: MTT in vitro cytotoxicity, A549; type: cell-based; conditions: incubation 24 h, mean ± SD
Description: as §1

[3] = system: PC-3 human prostate carcinoma cell line; experiment: MTT in vitro cytotoxicity, PC-3; type: cell-based; conditions: incubation 24 h, mean ± SD
Description: as §1

[4] = Cyclic voltammetry in CH2Cl2/[N^nBu4]PF6; type: physicochemical; conditions: CH2Cl2/[N^nBu4]PF6 0.2 M
Description: Cyclic voltammetry measurements were conducted by using a PalmSens4 instrument connected to a computer operating with the PSTrace5 electrochemical software. Prior to use, anhydrous CH2Cl2 (Merck) was stored under argon over 3 Å molecular sieves. Both [N^nBu4]PF6 (electrochemical grade) and FeCp2, obtained from Fluka, were utilized without requiring additional purification. Cyclic voltammetries were carried out under argon by utilizing a 0.2 M solution of [N^nBu4]PF6 in CH2Cl2 as the supporting electrolyte. The working electrode and the counter electrode were comprised of a platinum disk and a platinum gauze, respectively, both enclosed within a glass tube. A leakage-free miniature electrode of Ag/AgCl/KCl (from eDAQ) was employed as a reference. The three-electrode designed cell was subjected to predrying via vacuum heating and then filled with argon gas. The Schlenk-type design of the cell was effective in upholding both anhydrous and anaerobic conditions. Subsequently, a solution of supporting electrolyte, prepared under argon, was introduced into the cell, and the CV of the solvent was acquired. Afterward, the analyte was introduced, and voltammograms were recorded. Under the selected experimental conditions, the one-electron oxidation of ferrocene occurred at a standard potential of E° = +0.45 V relative to Ag/AgCl/KCl.

[5] = system: A2780 cells; experiment: Apoptosis, Annexin V/propidium iodide flow cytometry; type: cell-based, human; conditions: A2780, 4 μM, 24 h
Description: The A2780 ovarian carcinoma cell line was received from Merck (reference 93112519–1VL) and cultured at 37 °C in an environment with 5% CO2. The cultivation was carried out in complete cell culture medium (RPMI-1640 medium, Merck), which was supplemented with 10% fetal bovine serum (FBS, Merck), 1% L-glutamine (Merck) and 1% penicillin–streptomycin–neomycin (PSN, Merck). For the flow cytometry experiments, three independent duplicates were analyzed using a BD FACSVerse flow cytometer (Becton Dickinson, USA). At least 5 × 10^3 events were recorded for each sample. The same procedure was replicated for the experiments described below. Solutions of the complexes were formulated using the stock solutions (Section 5.1).
Apoptosis assay was performed using an Annexin V-FITC/PI commercial kit (V13242, Thermo Fisher Scientific, USA), while caspase 3/7 activation assay was performed with a CellEvent Caspase-3/7 Green Flow Cytometry Assay Kit (C10427, Thermo Fisher Scientific, USA). A2780 cells were seeded in 24-well plates at a density of 5 × 10^4 cells per well; after 24 h, the cells were exposed to 4 μM solution of the selected complex for 24 h. […] The supernatant was collected, cells were washed with PBS (0.1 M, pH 7.4), and trypsin was added (0.25% trypsin-EDTA, GibcoTM). Finally, complete cell culture medium was added to stop the trypsinization, and a final volume of 500 μL was divided into two 250 μL aliquots, following the protocol provided by the manufacturer. Samples were centrifuged, treated with the respective buffers, and then incubated in the dark at room temperature for 10 min (Annexin V-FITC/PI) or at 37 °C for 30 min (CellEventTM Caspase-3/7 Green Detection Reagent).

[6] = vs Ag/AgCl/KCl, peak potential of irreversible process

Row | SMILES | IC50 [1] | IC50 [2] | IC50 [3] | Formal electrode potential, oxidation [4, 6] | Formal electrode potential, reduction [4, 6] | Formal electrode potential, oxidation ([4]; vs FeCp2 (in parentheses)) | Formal electrode potential, reduction ([4]; vs FeCp2 (in parentheses)) | proapoptotic effect, Annexin V/PI (in words) [5]
1 | F[B-](F)(F)F.O=[C]=[Ru+]1([CH]2C=CC=C2)[C](=O)[Ru]1(=[C]=O)([CH]=C=C1CCCC1)[CH]1C=CC=C1 (stereo not drawn) [3a, [Ru2Cp2(CO)3{μ–η^1:η^2-CH=C=(cyclopentylidene)}]BF4] | 6.4 ± 1.9 µM | 25.3 ± 1.9 µM | 22.2 ± 2.4 µM | +1.61 V | –1.00 V | +1.15 V | −1.46 V | much less effective than that of cisplatin
2 | CC12CCC3c4ccc(O)cc4CCC3C1CCC2=C=[CH][Ru]1(=[C]=O)([CH]2C=CC=C2)[C](=O)[Ru+]1(=[C]=O)[CH]1C=CC=C1.F[B-](F)(F)F (mixture of isomers) [3b, [Ru2Cp2(CO)3{μ–η^1:η^2-CH=C=(estradiolylidene)}]BF4] | 4.6 ± 1.3 µM | 16.1 ± 1.3 µM | 13.4 ± 1.8 µM |  |  |  |  | much less effective than that of cisplatin
